Experimental data published in patent US20230243822A1, “MOLECULAR DISEASE PROFILE AND USE THEREOF FOR MONITORING AND TREATING RHEUMATAOID ARTHRITIS” (JANSSEN BIOTECH, INC., priority 2020, published 2023).

Key:
[1] = tested on: RA patients; conditions: RA patients; cited from earlier work
[2] = tested on: 4-analyte M-DP panel (CRP, CXCL10, CXCL13, SAA); experiment: Pharmacodynamic M-DP score, 4-analyte panel CRP, CXCL10, CXCL13, SAA (SOMAscan), clinical studies in RA; format: in vivo, human; conditions: for M-DP score mean ± SD, All treated / M-DP score mean difference ± SD, Good vs. No / M-DP score mean ± SD, DAS28-CRP response group Good / M-DP score mean ± SD, DAS28-CRP response group Moderate / M-DP score mean ± SD, DAS28-CRP response group No: 4-analyte; for M-DP score mean difference ± SD, Good vs. No / M-DP score mean ± SD, DAS28-CRP response group Good / M-DP score mean ± SD, DAS28-CRP response group Moderate / M-DP score mean ± SD, DAS28-CRP response group No: response at week 24
Excerpt: (§1) Serum samples and data from eight interventional clinical studies with seven different active treatments for RA or placebo treatment were obtained and analyzed: sirukumab (anti-IL-6) and placebo treatments in SIRROUND-M (NCT01689532; Takeuchi T, et al. Arthritis Res Ther. 2018 Mar. 7; 20(1): 42), SIRROUND-D (NCT01604343; Takeuchi T, et al. Ann Rheum Dis. 2017 Dec.; 76(12): 2001-2008), and SIRROUND-T (NCT01606761; Aletaha D, et al. Lancet. 2017 Mar. 25; 389(10075): 1206-1217); sirukumab and adalimumab (anti-TNF-alpha) treatments in SIRROUND-H (NCT02019472; Taylor PC, et al. Ann Rheum Dis. 2018 May; 77(5): 658-666); golimumab (anti-TNF-alpha) treatment in GO-FURTHER (NCT00973479; Weinblatt ME, et al. Ann Rheum Dis. 2013 March; 72(3): 381-9); guselkumab (anti-IL-23p19), ustekinumab (anti-IL-12/IL-23p40), and placebo treatments in CNTO1275ARA2001 (NCT01645280; Cox JD, et al. […]); JNJ-40346527 (colony-stimulating factor-1 inhibitor) and placebo treatments in 40346527ARA2001 (NCT01597739; Genovese MC, et al. J Rheumatol. 2015 October; 42(10): 1752-60). Plasma samples were obtained from the RA-MAP TACERA study (Cope AP, et al. Nat Rev Rheumatol. 2018 January; 14(1): 53-60) before (baseline) and 6-months after initiation of conventional synthetic disease-modifying anti-rheumatic drugs (csDMARDs). Details of treatment dose groups, concomitant methotrexate use, and previous experience with csDMARDs and biologics are reported in Table 1. The studies were conducted in accordance with the Declaration of Helsinki. The study protocols were reviewed and approved by an independent ethics committee or institutional review board for each study center. Written informed consent was obtained from all patients before study entry. Additional study details and patient characteristics are available in the referenced publications for each study. For SIRROUND-D and SIRROUND-T studies, sets of serum samples from demographically-matched healthy controls were obtained from commercial sources (BioIVT, Westbury, N.Y.).
(§2) Serum samples from baseline (week 0) and the time points indicated in Table 1 were provided for quantification of 1189 serum analytes using the SomaScan v3.1 platform (SomaLogic, Boulder, Colo.; www.somalogic.com), with the exception of RA-MAP TACERA, for which plasma samples were analyzed for 1301 analytes using the SomaScan v3.2 platform. For some studies, a redacted dataset reporting data for a subset of the analytes was obtained. Relative fluorescence unit (RFU) data were sequentially normalized for hybridization controls (internal standards per samples), median signal across all samples (assumes same total protein concentration across sample set), and calibration controls (common sample standards across analysis plates). Samples failed quality control standards defined by Somalogic were excluded from analyses. The normalized RFU values were log2-transformed for subsequent analyses.
(§3) Changes in analyte expression levels were calculated for individual samples as the log2 transform of the ratio of the analyte level at the indicated time point (visit level) over the analyte level at baseline (baseline level) for a given subject, i.e., log 2(visit level/baseline level). Changes in RA disease-associated analytes per sample were summarized using a pharmacodynamic (PD) molecular disease profile (M-DP) score, defined as the median value of the log 2(visit level/baseline level) values for analytes in the defined M-DP analyte set. […] PD M-DP scores in the log 2(visit level/baseline level) scale can be transformed to percent change from baseline, using the transformation: (2^M-DP score−1)×100%.
In selecting the best minimal set of analytes that performs similarly to the full 14-analyte set, analyte sets that results in significant associations between DAS28-CRP EULAR good vs. no response with p<0.05 for each study were prioritized (Table 4). […]

[3] = tested on: 14-analyte M-DP panel; experiment: Pharmacodynamic M-DP score, 14-analyte panel (SomaLogic SOMAscan), clinical studies in RA; format: in vivo, human; conditions: for M-DP score mean difference ± SD, Good vs. No / M-DP score mean ± SD, DAS28-CRP response group Good / M-DP score mean ± SD, DAS28-CRP response group Moderate / M-DP score mean ± SD, DAS28-CRP response group No: response at week 24
Excerpt: as §1, §2, §3
Statistical analyses were performed on log2-transformed data, for either normalized Relative fluorescence unit (RFU) datasets or within-subject fold/baseline datasets. Significance of differences between groups was evaluated using General Linear Models, with t-tests when comparing two groups. […]

[4] = GO-FURTHER, score at week 14, golimumab IV 2 mg/kg weeks 0, 4, then q8w plus methotrexate
[5] = GO-FURTHER, score at week 14, golimumab IV 2 mg/kg
[6] = CNTO1275ARA2001, score at week 4, ustekinumab SC 90 mg or guselkumab SC 50 or 200 mg
[7] = CNTO1275ARA2001, score at week 28, ustekinumab SC 90 mg or guselkumab SC 50 or 200 mg

golimumab [reference compound]
clinical efficacy in the underlying clinical studies [1]: clinically efficacious | M-DP score mean ± SD, All treated [2, 4]: −0.94 ± 0.63 log2 (fold/baseline) | M-DP score mean difference ± SD, Good vs. No [2, 5]: −0.56 ± 0.55 (0.0003) log2 (fold/baseline) | M-DP score mean ± SD, DAS28-CRP response group Good [2, 5]: −1.13 ± 0.61 log2 (fold/baseline) | M-DP score mean ± SD, DAS28-CRP response group Moderate [2, 5]: −0.94 ± 0.68 log2 (fold/baseline) | M-DP score mean ± SD, DAS28-CRP response group No [2, 5]: −0.57 ± 0.43 log2 (fold/baseline) | M-DP score decrease, good response subgroup ([2]; golimumab treatment data): 54% | M-DP score decrease, no response subgroup ([2]; golimumab treatment data): 33% | M-DP score decrease ([3]; GO-FURTHER, 14-weeks treatment, golimumab IV): 26% | M-DP score mean ± SD, All treated [3, 4]: −0.44 ± 0.37 log2 (fold/baseline) | M-DP score mean difference ± SD, Good vs. No [3, 5]: −0.35 ± 0.35 log2 (fold/baseline) | M-DP score mean ± SD, DAS28-CRP response group Good [3, 5]: −0.56 ± 0.39 log2 (fold/baseline) | M-DP score mean ± SD, DAS28-CRP response group Moderate [3, 5]: −0.45 ± 0.34 log2 (fold/baseline) | M-DP score mean ± SD, DAS28-CRP response group No [3, 5]: −0.21 ± 0.27 [22] * log2 (fold/baseline)

guselkumab [reference compound]
clinical efficacy in the underlying clinical studies [1]: not clinically efficacious | M-DP score mean ± SD, All treated [2, 6]: −0.12 ± 0.39 log2 (fold/baseline) | M-DP score mean difference ± SD, Good vs. No [2, 6]: −0.11 ± 0.33 (0.4781) log2 (fold/baseline) | M-DP score mean ± SD, DAS28-CRP response group Good [2, 6]: −0.19 ± 0.30 log2 (fold/baseline) | M-DP score mean ± SD, DAS28-CRP response group Moderate [2, 6]: −0.11 ± 0.49 log2 (fold/baseline) | M-DP score mean ± SD, DAS28-CRP response group No [2, 6]: −0.08 ± 0.35 log2 (fold/baseline) | M-DP score mean ± SD, All treated [2, 7]: −0.07 ± 0.37 log2 (fold/baseline) | M-DP score mean difference ± SD, Good vs. No [2, 7]: −0.12 ± 0.38 (0.5645) log2 (fold/baseline) | M-DP score mean ± SD, DAS28-CRP response group Good [2, 7]: −0.12 ± 0.38 log2 (fold/baseline) | M-DP score mean ± SD, DAS28-CRP response group Moderate [2, 7]: −0.10 ± 0.39 log2 (fold/baseline) | M-DP score mean ± SD, DAS28-CRP response group No [2, 7]: −0.01 ± 0.38 log2 (fold/baseline) | M-DP score mean ± SD, All treated [3, 6]: −0.01 ± 0.19 log2 (fold/baseline) | M-DP score mean difference ± SD, Good vs. No [3, 6]: 0.00 ± 0.19 log2 (fold/baseline) | M-DP score mean ± SD, DAS28-CRP response group Good [3, 6]: −0.04 ± 0.19 log2 (fold/baseline) | M-DP score mean ± SD, DAS28-CRP response group Moderate [3, 6]: 0.02 ± 0.20 log2 (fold/baseline) | M-DP score mean ± SD, DAS28-CRP response group No [3, 6]: −0.04 ± 0.19 [12] log2 (fold/baseline) | M-DP score mean ± SD, All treated [3, 7]: −0.03 ± 0.26 log2 (fold/baseline) | M-DP score mean difference ± SD, Good vs. No [3, 7]: −0.03 ± 0.21 log2 (fold/baseline) | M-DP score mean ± SD, DAS28-CRP response group Good [3, 7]: −0.08 ± 0.10 log2 (fold/baseline) | M-DP score mean ± SD, DAS28-CRP response group Moderate [3, 7]: 0.01 ± 0.34 log2 (fold/baseline) | M-DP score mean ± SD, DAS28-CRP response group No [3, 7]: −0.05 ± 0.25 [12] log2 (fold/baseline) | GMean M-DP scores, change ([3]; week 4 or latest time point evaluated (weeks 28, 28, and 12, respectively)): not decreased
